{
  "source": "ChEMBL document CHEMBL1250444",
  "about": "“Nitric oxide activates TRP channels by cysteine S-nitrosylation” (Nat Chem Biol, 2006)",
  "key": {"DT40": {"test_system": "DT40", "assay": "Induction of P2Y mediated TRPC5 S-nitrosylation in chicken DT40 cells assessed as increase in Ca2+ level from extracellular space at 100 uM in presence of PLC-beta inhibitor U73122", "type": "cell-based"}, "[1]": {"target": "T1, Short transient receptor potential channel 5 (Homo sapiens) (UniProt Q9UL62)", "T1 sequence (whole entry)": "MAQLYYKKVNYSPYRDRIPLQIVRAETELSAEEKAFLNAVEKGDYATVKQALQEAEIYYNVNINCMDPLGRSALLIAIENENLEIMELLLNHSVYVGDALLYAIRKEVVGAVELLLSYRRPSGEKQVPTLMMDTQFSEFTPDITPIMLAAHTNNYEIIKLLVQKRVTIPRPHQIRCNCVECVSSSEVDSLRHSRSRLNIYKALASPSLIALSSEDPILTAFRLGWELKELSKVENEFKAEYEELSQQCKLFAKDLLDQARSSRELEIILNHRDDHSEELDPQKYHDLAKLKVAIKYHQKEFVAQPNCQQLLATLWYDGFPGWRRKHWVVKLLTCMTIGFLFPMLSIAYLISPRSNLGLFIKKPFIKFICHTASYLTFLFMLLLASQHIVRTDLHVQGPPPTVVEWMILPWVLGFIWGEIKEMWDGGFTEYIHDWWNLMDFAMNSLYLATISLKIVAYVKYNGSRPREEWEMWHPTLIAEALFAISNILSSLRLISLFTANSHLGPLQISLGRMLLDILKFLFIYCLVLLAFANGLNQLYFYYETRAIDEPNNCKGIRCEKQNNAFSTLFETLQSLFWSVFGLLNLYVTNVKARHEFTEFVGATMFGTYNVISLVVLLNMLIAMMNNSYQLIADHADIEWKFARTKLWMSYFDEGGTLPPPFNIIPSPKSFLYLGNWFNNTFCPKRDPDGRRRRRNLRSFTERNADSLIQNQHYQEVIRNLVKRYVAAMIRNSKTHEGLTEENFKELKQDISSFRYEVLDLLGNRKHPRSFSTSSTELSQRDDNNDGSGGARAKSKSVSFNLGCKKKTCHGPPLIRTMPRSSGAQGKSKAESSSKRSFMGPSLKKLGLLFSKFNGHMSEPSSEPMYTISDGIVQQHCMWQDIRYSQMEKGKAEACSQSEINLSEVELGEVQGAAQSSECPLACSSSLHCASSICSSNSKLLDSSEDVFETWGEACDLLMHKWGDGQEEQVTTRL", "assay": "Induction of S-nitrosylation of TRPC5 in HEK cells assessed as increase in Ca2+ level from extracellular space at 1 mM", "type": "cell-based", "details": "HEK293"}, "[2]": {"target": "T1, Short transient receptor potential channel 5 (Homo sapiens)", "assay": "Induction of S-nitrosylation of TRPC5 in HEK cells assessed as increase in Ca2+ level from extracellular space at 50 uM", "type": "cell-based", "details": "HEK293"}, "BAEC [3]": {"test_system": "BAEC", "assay": "Inhibition of NO production in BAEC assessed as inhibition of Ca2+ influx at 10 mM", "type": "functional, cell-based", "details": "Bos taurus"}, "[4]": {"target": "T1, Short transient receptor potential channel 5 (Homo sapiens)", "assay": "Induction of S-nitrosylation of TRPC5 in HEK cells assessed as increase in Ca2+ level from extracellular space at 5 mM extracellular administration", "type": "cell-based", "details": "HEK293"}, "[5]": {"target": "T1, Short transient receptor potential channel 5 (Homo sapiens)", "assay": "Induction of S-nitrosylation of TRPC5 in HEK cells assessed as increase in Ca2+ level from extracellular space at 5 mM", "type": "cell-based", "details": "HEK293"}, "BAEC [6]": {"test_system": "BAEC", "assay": "Inhibition of NO production in BAEC at 300 uM", "type": "functional, cell-based", "details": "Bos taurus"}, "BAEC [7]": {"test_system": "BAEC", "assay": "Inhibition of NO production in BAEC assessed as inhibition of Ca2+ influx at 300 uM", "type": "functional, cell-based", "details": "Bos taurus"}, "BAEC [8]": {"test_system": "BAEC", "assay": "Inhibition of NO production in BAEC assessed as inhibition of Ca2+ influx at 1 mM", "type": "functional, cell-based", "details": "Bos taurus"}, "[9]": {"target": "T1, Short transient receptor potential channel 5 (Homo sapiens)", "assay": "Induction of S-nitrosylation of TRPC5 in HEK cells assessed as increase in Ca2+ level from extracellular space at 10 uM", "type": "cell-based", "details": "HEK293"}, "[10]": {"target": "T1, Short transient receptor potential channel 5 (Homo sapiens)", "assay": "Induction of S-nitrosylation of TRPC5 in HEK cells assessed as inhibition of incorporation of DTNB-2Bio at 30 uM", "type": "cell-based", "details": "HEK293"}},
  "note": "Active and inactive are the calls of the source. The rule behind the calls is not given here.",
  "data": [
    {"smiles": "Nc1ncnc2c1ncn2[C@@H]1O[C@H](COP(=O)(O)OP(=O)(O)OP(=O)(O)O)[C@@H](O)[C@H]1O", "values": [
      {"measurement": "Activity", "setting": "DT40", "result": "inactive"}
    ]},
    {"smiles": "[NH-]c1c[n+](N2CCOCC2)no1", "values": [
      {"measurement": "Activity", "setting": "[1]", "result": "Active"}
    ]},
    {"smiles": "O=C(O)c1cc(SSc2ccc([N+](=O)[O-])c(C(=O)O)c2)ccc1[N+](=O)[O-]", "values": [
      {"measurement": "Activity", "setting": "[2]", "result": "Active"}
    ]},
    {"smiles": "c1cc(SSc2ccncc2)ccn1", "values": [
      {"measurement": "Activity", "setting": "[2]", "result": "Active"}
    ]},
    {"smiles": "CC(=O)N[C@@H](CS)C(=O)O", "values": [
      {"measurement": "inhibition", "setting": "BAEC [3]", "result": "Active"}
    ]},
    {"smiles": "C[N+](C)(C)CCSS(C)(=O)=O", "values": [
      {"measurement": "Activity", "setting": "[4]", "result": "inactive"}
    ]},
    {"smiles": "CS(=O)(=O)SCCN", "values": [
      {"measurement": "Activity", "setting": "[4]", "result": "Active"}
    ]},
    {"smiles": "CC/C(=C\\C(=N\\O)C(N)=O)C(C)[N+](=O)[O-]", "note": "(racemic)", "values": [
      {"measurement": "Activity", "setting": "[5]", "result": "Active"}
    ]},
    {"smiles": "COC(=O)[C@@H](N)CCCNC(=N)N[N+](=O)[O-]", "values": [
      {"measurement": "inhibition", "setting": "BAEC [6]", "result": "Active"},
      {"measurement": "inhibition", "setting": "BAEC [7]", "result": "Active"}
    ]},
    {"smiles": "O=C1O[C@H]([C@@H](O)CO)C(O)=C1O", "values": [
      {"measurement": "inhibition", "setting": "BAEC [8]", "result": "Active"}
    ]},
    {"smiles": "O=c1onc2cnc3ccccc3n12", "values": [
      {"measurement": "Activity", "setting": "[9]", "result": "inactive"}
    ]},
    {"smiles": "O=C(CCCC[C@@H]1SC[C@@H]2NC(=O)N[C@@H]21)NCCCCCNC(=O)c1cc(SSc2ccc([N+](=O)[O-])c(C(=O)NCCCCCNC(=O)CCCC[C@@H]3SC[C@@H]4NC(=O)N[C@@H]43)c2)ccc1[N+](=O)[O-]", "values": [
      {"measurement": "Activity", "setting": "[10]", "result": "Active"}
    ]}
  ]
}
